Measured values from PubChem BioAssay AID248 (DTP/NCI, 2004).
Toxic doses and inconclusive results are not listed. Rule as the data show it: active = T/C of 150% or more; inactive = T/C below 125%.

System: L1210 leukemia ip in BDF1 mice, survival T/C
Assay: NCI In Vivo Anticancer Drug Screen. Data for tumor model L1210 Leukemia (intraperitoneal) in B6D2F1 (BDF1) mice
Conditions: endpoint: mean survival time, higher = longer survival
In short: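 In this screen, tumor-bearing mice given compound are compared to those given vehicle, and their survival values are reported as a treated-to-control quotient.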

[1] = dose: 100.0 mg/kg/injection, schedule: Q04DX003 (ip), vehicle: saline with Tween-80
[2] = dose: 200.0 mg/kg/injection, schedule: Q04DX003 (ip), vehicle: saline with Tween-80
[3] = dose: 400.0 mg/kg/injection, schedule: Q04DX003 (ip), vehicle: saline with Tween-80
[4] = dose: 100.0 mg/kg/injection, schedule: Q01DX009 (ip), vehicle: Klucel (hydroxypropylcellulose) (HPC)
[5] = dose: 100.0 mg/kg/injection, schedule: Q04DX003 (ip), vehicle: Klucel (hydroxypropylcellulose) (HPC)
[6] = dose: 200.0 mg/kg/injection, schedule: Q01DX009 (ip), vehicle: Klucel (hydroxypropylcellulose) (HPC)
[7] = dose: 200.0 mg/kg/injection, schedule: Q04DX003 (ip), vehicle: Klucel (hydroxypropylcellulose) (HPC)
[8] = dose: 400.0 mg/kg/injection, schedule: Q01DX009 (ip), vehicle: Klucel (hydroxypropylcellulose) (HPC)
[9] = dose: 400.0 mg/kg/injection, schedule: Q04DX003 (ip), vehicle: Klucel (hydroxypropylcellulose) (HPC)
[10] = dose: 100.0 mg/kg/injection, schedule: Q01DX001 (ip), vehicle: saline
[11] = dose: 100.0 mg/kg/injection, schedule: Q01DX009 (ip), vehicle: saline with Tween-80
[12] = dose: 200.0 mg/kg/injection, schedule: Q01DX009 (ip), vehicle: saline with Tween-80
[13] = dose: 400.0 mg/kg/injection, schedule: Q01DX009 (ip), vehicle: saline with Tween-80

Measured: T/C

CCOC(=O)/C=C/c1c(OC)cc(OC)cc1OC
inactive: dose: 100.0 mg/kg/injection, schedule: Q01DX009 (ip), vehicle: other 97 % of control | dose: 100.0 mg/kg/injection, schedule: Q04DX003 (ip), vehicle: saline 101 % of control | dose: 200.0 mg/kg/injection, schedule: Q01DX009 (ip), vehicle: other 106 % of control | dose: 200.0 mg/kg/injection, schedule: Q04DX003 (ip), vehicle: saline 101 % of control | dose: 400.0 mg/kg/injection, schedule: Q01DX009 (ip), vehicle: other 94 % of control | dose: 400.0 mg/kg/injection, schedule: Q04DX003 (ip), vehicle: saline 93 % of control

CC1CC(C)(C)[N+](C)=C(CC(O)(c2ccccc2)c2ccccc2)O1 (configuration not stated)
inactive: dose: 6.25 mg/kg/injection, schedule: Q04DX003 (ip), vehicle: saline sonified 95 % of control | dose: 12.5 mg/kg/injection, schedule: Q04DX003 (ip), vehicle: saline sonified 104 % of control | dose: 25.0 mg/kg/injection, schedule: Q04DX003 (ip), vehicle: saline sonified 92 % of control

O=C(C1=Cc2ccccc2OC1)N1CCN(C(=O)C2=Cc3ccccc3OC2)CC1
inactive: [1] 100 % of control | [2] 97 % of control | [3] 95 % of control

O=C(NC1c2cc(Cl)ccc2-c2c(Cl)cc(Cl)cc21)C12CC3CC(CC(C3)C1)C2 (configuration not stated)
inactive: [4] 96 % of control | [5] 100 % of control | [6] 97 % of control | [7] 93 % of control | [8] 104 % of control | [9] 96 % of control

CC1(C)OCC2SC(n3cnc4c(N)ncnc43)C(OS(C)(=O)=O)C2O1 (configuration not stated)
inactive: dose: 100.0 mg/kg/injection, schedule: Q01DX005 (ip), vehicle: saline 97 % of control | dose: 200.0 mg/kg/injection, schedule: Q01DX005 (ip), vehicle: saline 90 % of control

O=C(/C=C/c1ccc2c(c1)OCO2)c1ccc2c(c1)OCO2
inactive: [4] 106 % of control | [5] 98 % of control | [6] 100 % of control | [7] 104 % of control | [8] 100 % of control | [9] 101 % of control

CCC1SC(CC)(CC(C)C)C(=O)NC1=O (configuration not stated)
inactive: dose: 100.0 mg/kg/injection, schedule: Q01DX001 (ip), vehicle: carboxymethylcellulose (CMC) 102 % of control | dose: 200.0 mg/kg/injection, schedule: Q01DX001 (ip), vehicle: carboxymethylcellulose (CMC) 94 % of control | dose: 400.0 mg/kg/injection, schedule: Q01DX001 (ip), vehicle: carboxymethylcellulose (CMC) 94 % of control

Nc1nccnc1Cl
inactive: dose: 75.0 mg/kg/injection, schedule: Q01DX001 (ip), vehicle: acetone 104 % of control | dose: 150.0 mg/kg/injection, schedule: Q01DX001 (ip), vehicle: acetone 104 % of control | dose: 300.0 mg/kg/injection, schedule: Q01DX001 (ip), vehicle: acetone 96 % of control

O=C(OCCCCCCOC(=O)c1cccc([N+](=O)[O-])c1)c1cccc([N+](=O)[O-])c1
inactive: dose: 100.0 mg/kg/injection, schedule: Q01DX001 (ip), vehicle: other 93 % of control | dose: 200.0 mg/kg/injection, schedule: Q01DX001 (ip), vehicle: other 93 % of control | dose: 400.0 mg/kg/injection, schedule: Q01DX001 (ip), vehicle: other 101 % of control

S=P(Nc1ccc(Cl)cc1Cl)(Nc1ccc(Cl)cc1Cl)c1ccccc1
inactive: [4] 102 % of control | [6] 100 % of control | [8] 110 % of control

O=C(Nc1ccccc1)Nc1ccccc1Cl
inactive: dose: 100.0 mg/kg/injection, schedule: Q04DX002 (ip), vehicle: Klucel (hydroxypropylcellulose) (HPC) 110 % of control | dose: 200.0 mg/kg/injection, schedule: Q04DX002 (ip), vehicle: Klucel (hydroxypropylcellulose) (HPC) 93 % of control | dose: 400.0 mg/kg/injection, schedule: Q04DX002 (ip), vehicle: Klucel (hydroxypropylcellulose) (HPC) 107 % of control

CC(=O)OC1CCCC(OCC(C)C)O1 (configuration not stated)
inactive: dose: 40.0 mg/kg/injection, schedule: Q01DX Z (ip), vehicle: saline 94 % of control | dose: 60.0 mg/kg/injection, schedule: Q01DX Z (ip), vehicle: saline 92 % of control

COC1OC(COC(c2ccccc2)(c2ccccc2)c2ccccc2)C(OS(=O)(=O)c2ccc(C)cc2)C(OC(=O)c2ccccc2)C1OC(=O)c1ccccc1 (configuration not stated)
inactive: dose: 100.0 mg/kg/injection, schedule: Q04DX002 (ip), vehicle: saline with Tween-80 114 % of control | dose: 200.0 mg/kg/injection, schedule: Q04DX002 (ip), vehicle: saline with Tween-80 97 % of control | dose: 400.0 mg/kg/injection, schedule: Q04DX002 (ip), vehicle: saline with Tween-80 90 % of control

CCCCCCCN=C(N)c1ccc(C(=O)OCc2ccccc2)cc1
inactive: [10] 94 % of control | dose: 200.0 mg/kg/injection, schedule: Q01DX001 (ip), vehicle: saline 90 % of control

Cc1nc2cc3ccccc3c3ccc4cccc1c4c23
inactive: [11] 93 % of control | [12] 93 % of control | [13] 87 % of control

O=C1CC(c2ccccn2)=NN1c1ccccc1
inactive: [1] 98 % of control | [2] 94 % of control | [3] 91 % of control

Cc1ccc(NC(=O)Nc2cccc3ccccc23)cc1Cl
inactive: [4] 99 % of control | [5] 91 % of control | [6] 94 % of control | [7] 86 % of control | [8] 97 % of control | [9] 90 % of control

COc1cc(C)n2nnnc2n1
inactive: dose: 25.0 mg/kg/injection, schedule: Q01DX001 (ip), vehicle: saline 91 % of control | dose: 50.0 mg/kg/injection, schedule: Q01DX001 (ip), vehicle: saline 96 % of control | [10] 96 % of control

NS(=O)(=O)c1ccc(NC(=O)Nc2cccc(Cl)c2Cl)cc1
inactive: [4] 101 % of control | [6] 101 % of control | [8] 95 % of control

C(/C=C/c1ccccc1)=C1c2ccccc2-c2ccccc21
inactive: [11] 88 % of control | [1] 90 % of control | [12] 98 % of control | [2] 93 % of control | [13] 96 % of control | [3] 95 % of control
